According to patent EP4582426A1, “PAN-KRAS INHIBITOR COMPOUND” (Adlai Nortye Biopharma Co., Ltd., priority 2022, dated 2024):

Tests used:
SW480 (G12V) = experiment: In vitro cell proliferation inhibition test (CellTiter-Glo Luminescent Cell Viability Assay); assay type: cell-based; conditions: SW480 cell line, Large intestine, Colon, KRAS (p.G12V), cells and compounds co-incubated 72 hours
From the text: (§1) Due to the diversity of RAS mutations and in order to evaluate the activity of compounds in different RAS mutant cell lines, we selected KRAS^WT, KRAS^G12C, KRAS^G12D), KRAS^G12V and BRAF mutant cell lines (see the table below) for in vitro activity evaluation and screening of compounds .
(§2) Experimental protocol: CellTiter-Glo® Cell Luminescent Viability Assay (Promega)
(§3) According to the doubling time of different cell lines, different numbers of cells (1000-5000 cells/well) were inoculated into 96-well plates containing 180 µl of the corresponding medium, and cultured overnight in a 37°C cell incubator containing 5% CO2. On the second day, the compound to be tested was pre-diluted 3-fold with the medium, the highest concentration was 100 µM, and there were 10 concentration gradients in total; then 20 µl of the medium containing different concentrations of the compound was added to the cells in the 96-well plate to ensure the final concentration of the compound to be up to 10 µM, with 10 concentration gradients of 3-fold dilutions. After co-incubating cells and compounds for 72 hours, the 96-well plate was taken out of the incubator, placed at room temperature for 30 minutes, and then 25 µl CellTiter-Glo® Reagent was added to each well to mix well, and incubated at room temperature for 10 minutes, and then 100 µl of the sample was transferred to a white 96-well plate (OptiPlateTM-96, PerkinElmer), the […] signal value was read using a multi-functional microplate reader (SpectraMax® i3x, Molecular devices). Subsequently, the signal value was standardized, and the four-parameter fitting regression equation was used for curve fitting to calculate the half maximal inhibitory concentration (IC50) of the compound on the cell line. Table 3: Antiproliferative activity of compounds of the present invention on KRAS cell mutants

AsPC-1 (G12D) = experiment: as above; assay type: cell-based; conditions: AsPC-1 cell line, Pancreas, KRAS (p.G12D), cells and compounds co-incubated 72 hours
From the text: as §1, §2, §3

| Compound | IC50 (SW480 (G12V)) | IC50 (AsPC-1 (G12D)) | other results |
| --- | --- | --- | --- |
| (1r,2R,3S)-N-((6^3S,4S,Z)-12-(5-(3-((S)-3-(ethoxymethyl)morpholino)prop-1-yn-1-yl)-2-((S)-1-methoxyethyl)pyridin-3-yl)-1^1-ethyl-10,10-dimethyl-5,7-dioxo-6^1,6^2,6^3,6^4,6^5,6^6-hexahydro-1^1H-8-oxa-2(4,2)-thiazola-1(5,3)-indola-6(1,3)-pyridazinacycloundecaphane-4-yl)-2,3-dimethylcyclopropane-1-carboxamide [Example 37] | 0.68 nM | 1.01 nM | – |
| CCn1c(-c2cc(C#Cc3cccc4ccn(C)c34)cnc2[C@H](C)OC)c2c3cc(ccc31)-c1csc(n1)C[C@H](NC(=O)[C@H]1C[C@@H]1C)C(=O)N1CCC[C@H](N1)C(=O)OCC(C)(C)C2 [Example 47, (1S,2S)-N-((6^3S,4S,Z)-1^1-ethyl-1^2-(2-((S)-1-methoxyethyl)-5-((1-methyl-1H-indol-7-yl)ethynyl)pyridin-3-yl)-10,10-dimethyl-5,7-dioxo-6^1,6^2,6^3,6^4,6^5,6^6-hexahydro-1^1H-8-oxa-2(4,2)-thiazola-1(5,3)-indola-6(1,3)-pyridazinacycloundecaphane-4-yl)-2-methylcyclopropane-1-carboxamide] | – | – | IC50 (SW480 (G12V); Homo sapiens): 116 nM; IC50 (AsPC-1 (G12D); Homo sapiens, ASPC1): 456 nM |
| CCn1c(-c2cc(C#CCN(C)C)cnc2C(C)OC)c2c3cc(ccc31)-c1csc(n1)CC(NC(=O)C1C(C)C1C)C(=O)N1CCCC(N1)C(=O)OCC(C)(C)C2 [Example 58, (1r,2R,3S)-N-((6^3S,4S,Z)-1^2-(5-(3-(dimethylamino)prop-1-yn-1-yl)-2-((S)-1-methoxyethyl)pyridin-3-yl)-1^1-ethyl-10,10-dimethyl-5,7-dioxo-6^1,6^2,6^3,6^4,6^5,6^6-hexahydro-1^1H-8-oxa-2(4,2)-thiazola-1(5,3)-indola-6(1,3)-pyridazinacycloundecaphane-4-yl)-2,3-dimethylcyclopropane-1-carboxamide] | 0.24 nM | 0.7 nM | – |
| (1r,2R,3S)-N-((6^3S,4S,Z)-1^1-ethyl-1^2-(5-(3-((S)-hexahydropyrazino[2,1-c][1,4]oxazin-8(1H)-yl)prop-1-yn-1-yl)-2-((S)-1-methoxyethyl)pyridin-3-yl)-10,10-dimethyl-5,7-dioxo-6^1,6^2,6^3,6^4,6^5,6^6-hexahydro-1^1H-8-oxa-2(4,2)-thiazola-1(5,3)-indola-6(1,3)-pyridazinacycloundecaphane-4-yl)-2,3-dimethylcyclopropane-1-carboxamide [Example 40] | 1.5 nM | 1.35 nM | – |
| CCn1c(-c2cc(C#CCN3CCOCC3)cnc2[C@H](C)OC)c2c3cc(ccc31)-c1csc(n1)C[C@H](NC(=O)[C@H]1[C@H](C)[C@@H]1C)C(=O)N1CCC[C@H](N1)C(=O)OCC(C)(C)C2 [Example 2, (1r,2R,3S)-N-((63S,4S,Z)-11-ethyl-12-(2-((S)-1-methoxyethyl)-5-(3-morpholinoprop-1-yn-1-yl)pyridin-3-yl)-10,10-dimethyl-5,7-dioxo-61,62,63,64,65,66-hexahydro-11H-8-oxa-2(4,2)-thiazola-1(5,3)-indola-6(1,3)-pyridazinacycloundecaphane-4-yl)-2,3-dimethylcyclopropane-1-carboxamide] | 0.33 nM | 0.25 nM | IC50 (SW480 (G12V); listed as 2'): 74 nM; IC50 (AsPC-1 (G12D); listed as 2'): 172 nM |
| CCn1c(-c2cc(C#CCN3CCN(C)CC3)cnc2[C@H](C)OC)c2c3cc(ccc31)-c1csc(n1)C[C@H](NC(=O)[C@H]1C[C@@H]1C)C(=O)N1CCC[C@H](N1)C(=O)OCC(C)(C)C2 [Example 60, (1S,2S)-N-((6^3S,4S,Z)-1^1-ethyl-1^2-(2-((S)-1-methoxyethyl)-5-(3-(4-methylpiperazin-1-yl)prop-1-yn-1-yl)pyridin-3-yl)-10,10-dimethyl-5,7-dioxo-6^1,6^2,6^3,6^4,6^5,6^6-hexahydro-1^1H-8-oxa-2(4,2)-thiazola-1(5,3)-indola-6(1,3)-pyridazinacycloundecaphane-4-yl)-2-methylcyclopropane-1-carboxamide] | 1.55 nM | 1.71 nM | – |
| CCn1c(-c2cc(C#CCN3CCOC[C@H]3C)cnc2[C@H](C)OC)c2c3cc(ccc31)-c1csc(n1)C[C@H](NC(=O)[C@H]1C[C@@H]1C)C(=O)N1CCC[C@H](N1)C(=O)OCC(C)(C)C2 [Example 15, (1S,2S)-N-((63S,4S,Z)-11-ethyl-12-(2-((S)-1-methoxyethyl)-5-(3-((R)-3-methylmorpholino)prop-1-yn-1-yl)pyridin-3-yl)-10,10-dimethyl-5,7-dioxo-61,62,63,64,65,66-hexahydro-11H-8-oxa-2 (4,2)-thiazola-1(5,3)-indola-6(1,3)-pyridazinacyclonecaphane-4-yl)-2-methylcyclopropane-1-carboxamide] | 2.2 nM | 1.7 nM | IC50 (SW480 (G12V); listed as 15'): 1060 nM; IC50 (AsPC-1 (G12D); listed as 15'): 1880 nM |
| CCn1c(-c2cc(C#CCN3CCCCC3)cnc2[C@H](C)OC)c2c3cc(ccc31)-c1csc(n1)C[C@H](NC(=O)[C@H]1C[C@@H]1C)C(=O)N1CCC[C@H](N1)C(=O)OCC(C)(C)C2 [Example 59, (1S,2S)-N-((6^3S,4S,Z)-1^1-ethyl-1^2-(2-((S)-1-methoxyethyl)-5-(3-(piperidin-1-yl)prop-1-yn-1-yl)pyridin-3-yl)-10,10-dimethyl-5,7-dioxo-6^1,6^2,6^3,6^4,6^5,6^6-hexahydro-1^1H-8-oxa-2(4,2)-thiazola-1(5,3)-indola-6(1,3)-pyridazinacycloundecaphane-4-yl)-2-methylcyclopropane-1-carboxamide] | 1.76 nM | 0.96 nM | – |
| (1S,2S)-N-((6^3S,4S,Z)-1^1-ethyl-1^2-(5-(((R)-4-(2-hydroxyethyl)morpholin-3-yl)ethynyl)-2-((S)-1-methoxyethyl)pyridin-3-yl)-10,10-dimethyl-5,7-dioxo-6^1,6^2,6^3,6^4,6^5,6^6-hexahydro-1^1H-8-oxa-2(4,2)-thiazola-1(5,3)-indola-6(1,3)-pyridazinacycloundecaphane-4-yl)-2-methylcyclopropane-1-carboxamide [Example 33] | 6.5 nM | 2.9 nM | – |
| CCNc1ccc(C#Cc2cnc(C(C)OC)c(-c3c4c5cc(ccc5n3CC)-c3csc(n3)CC(NC(=O)C3C(C)C3C)C(=O)N3CCCC(N3)C(=O)OCC(C)(C)C4)c2)nn1 [32+32, (1r,2R,3S)-N-((6^3S,4S,Z)-1^1-ethyl-1^2-(5-((6-(ethylamino)pyridazin-3-yl)ethynyl)-2-((S)-1-methoxyethyl)pyridin-3-yl)-10,10-dimethyl-5,7-dioxo-6^1,6^2,6^3,6^4,6^5,6^6-hexahydro-1^1H-8-oxa-2(4,2)-thiazola-1(5,3)-indola-6(1,3)-pyridazinacycloundecaphane-4-yl)-2,3-dimethylcyclopropane-1-carboxamide] | 55.4 nM | 15.3 nM | – |
| CCn1c(-c2cc(C#CC3CCCN3C)cnc2C(C)OC)c2c3cc(ccc31)-c1csc(n1)CC(NC(=O)C1C(C)C1C)C(=O)N1CCCC(N1)C(=O)OCC(C)(C)C2 [Example 11, (1r,2R,3S)-N-((63S,4S,Z)-11-ethyl-12-(2-((S)-1-methoxyethyl)-5-(((S)-1-methylpyrrolidin-2-yl)ethynyl)pyridin-3-yl)-10,10-dimethyl-5,7-dioxo-61,62,63,64,65,66-hexahydro-11H-8-oxa-2(4,2)-thiazola-1(5,3)-indola-6(1,3)-pyridazinacyclonecaphane-4-yl)-2,3-dimethylcyclopropane-1-carboxamide] | – | 1.7 nM | – |
